From the supplement of paper PMC9663587

How the values were obtained:
[1] = compound: CC(=O)c1c(C)c2cnc(Nc3ccc(N4CCNCC4)cn3)nc2n(C2CCCC2)c1=O; test: increase in dead-cell fraction, 72 h; higher = more death;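 also: breast cancer cell lines in 384-well plates, stained with Hoechst plus LIVE/DEAD far red dye and imaged, cells above an LDR intensity threshold counted dead, Hoechst-negative corpses included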
[2] = compound: CCc1cnn2c(NCc3ccc[n+]([O-])c3)cc(N3CCCC[C@H]3CCO)nc12; test: as above
[3] = compound: CCN1CCN(Cc2ccc(Nc3ncc(F)c(-c4cc(F)c5nc(C)n(C(C)C)c5c4)n3)nc2)CC1; test: as above
[4] = compound: CCOc1cc2ncc(C#N)c(Nc3ccc(OCc4ccccn4)c(Cl)c3)c2cc1NC(=O)/C=C/CN(C)C [Neratinib/HKI272]; test: as above
[5] = compound: CC(=O)c1c(C)c2cnc(Nc3ccc(N4CCN(CCOCCOCCOCCNC(=O)COc5cccc6c5C(=O)N(C5CCC(=O)NC5=O)C6=O)CC4)cn3)nc2n(C2CCCC2)c1=O [BSJ-03-123]; test: as above
[6] = compound: CN(C)C(=O)c1cc2cnc(Nc3ccc(N4CCNCC4)cn3)nc2n1C1CCCC1 [LEE011/Ribociclib]; test: as above
[7] = compound: CN1CC[C@H](c2c(O)cc(O)c3c(=O)cc(-c4ccccc4Cl)oc23)[C@H](O)C1 [Flavopiridol]; test: as above
[8] = compound: CN(C)C/C=C/C(=O)Nc1ccc(C(=O)Nc2cccc(Nc3ncc(Cl)c(-c4c[nH]c5ccccc45)n3)c2)cc1 [THZ1]; test: as above
[9] = compound: COc1ccc2c(c1)[C@]1(C[C@H]1c1ccc3c(/C=C/c4ccc(CN5C[C@@H](C)O[C@@H](C)C5)cc4)n[nH]c3c1)C(=O)N2
[10] = compound: O=C(CCCCCCC(=O)Nc1ccccc1)NO [Vorinostat]
[11] = compound: CNC(=O)c1cccc(-c2ccc3c(N4CCOC[C@@H]4C)nc(N4CCOC[C@@H]4C)nc3n2)c1 [AZD2014]
[12] = compound: C[C@@H]1COCCN1c1cc(C2([S@](C)(=N)=O)CC2)nc(-c2cc[nH]c3nccc2-3)n1 [AZD6738]
[13] = compound: CCN1CCN(Cc2ccc(Nc3ncc(F)c(-c4cc(F)c5nc(C)n(C(C)C)c5c4)n3)nc2)CC1
[14] = compound: CN(C)C/C=C/C(=O)Nc1ccc(O[C@@H]2CCC[C@@H](Nc3ncc(Cl)c(-c4c[nH]c5ccccc45)n3)C2)cc1 [BSJ-01-175]
[15] = compound: CC(C)NC[C@@H](C(=O)N1CCN(c2ncnc3c2[C@H](C)C[C@H]3O)CC1)c1ccc(Cl)cc1 [Ipatasertib/GDC0068]
[16] = compound: CCC1=CN=CN=C1N2CCN(CC2)CC3=NC4=C(N3)C=C(C=C4)C(F)(F)F
[17] = compound: O=C1NC(=O)[C@@H](c2cn3c4c(cccc24)CCC3)[C@@H]1c1c[nH]c2ccccc12 [Tivantinib/ARQ197]
[18] = compound: CC(=O)Nc1cccc(-n2c(=O)n(C3CC3)c(=O)c3c(Nc4ccc(I)cc4F)n(C)c(=O)c(C)c32)c1
[19] = compound: NC(=O)Nc1cc(-c2cccc(F)c2)sc1C(=O)N[C@H]1CCCNC1 [AZD7762]
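For GR50, 72 h in this document: breast cancer and non-malignant breast epithelial cell lines, Deep Dye Drop or Dye Drop imaging, nine half-log doses, GR normalized to time-zero plates and DMSO-only controls.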

Cell Line: EFM19
- increase in dead-cell fraction ([1]; 0.0003162 µM): -0.0086
- increase in dead-cell fraction ([1]; 0.001 µM): -0.0086
- increase in dead-cell fraction ([1]; 0.003162 µM): -0.0036
- increase in dead-cell fraction ([1]; 0.01 µM): -0.0059
- increase in dead-cell fraction ([1]; 0.03162 µM): -0.0024
- increase in dead-cell fraction ([1]; 0.1 µM): -0.0087
- increase in dead-cell fraction ([1]; 0.3162 µM): 0.0108
- increase in dead-cell fraction ([1]; 1 µM): 0.0355
- increase in dead-cell fraction ([1]; 3.162 µM): 0.0448
- increase in dead-cell fraction ([2]; 0.0001 µM): -0.0077
- increase in dead-cell fraction ([2]; 0.0003162 µM): -0.0011
- increase in dead-cell fraction ([2]; 0.001 µM): -0.006
- increase in dead-cell fraction ([2]; 0.003162 µM): -0.0052
- increase in dead-cell fraction ([2]; 0.01 µM): -0.0076
- increase in dead-cell fraction ([2]; 0.03162 µM): 0.0197
- increase in dead-cell fraction ([2]; 0.1 µM): 0.148
- increase in dead-cell fraction ([2]; 0.3162 µM): 0.323
- increase in dead-cell fraction ([2]; 1 µM): 0.478
- increase in dead-cell fraction ([3]; 0.001 µM): -0.0101
- increase in dead-cell fraction ([3]; 0.003162 µM): -0.0007
- increase in dead-cell fraction ([3]; 0.01 µM): 0.0035
- increase in dead-cell fraction ([3]; 0.03162 µM): 0.0136
- increase in dead-cell fraction ([3]; 0.1 µM): 0.0179
- increase in dead-cell fraction ([3]; 0.3162 µM): 0.0249
- increase in dead-cell fraction ([3]; 1 µM): 0.0149
- increase in dead-cell fraction ([3]; 3.162 µM): 0.0183
- increase in dead-cell fraction ([3]; 10 µM): 0.0445
- increase in dead-cell fraction ([4]; 0.0003162 µM): -0.0049
- increase in dead-cell fraction ([4]; 0.001 µM): -0.0044
- increase in dead-cell fraction ([4]; 0.003162 µM): -0.0012
- increase in dead-cell fraction ([4]; 0.01 µM): -0.0052
- increase in dead-cell fraction ([4]; 0.03162 µM): -0.0028
- increase in dead-cell fraction ([4]; 0.1 µM): -0.0038
- increase in dead-cell fraction ([4]; 0.3162 µM): -0.0011
- increase in dead-cell fraction ([4]; 1 µM): -0.0033
- increase in dead-cell fraction ([4]; 3.162 µM): 0.0028
- increase in dead-cell fraction ([5]; 0.001 µM): -0.0051
- increase in dead-cell fraction ([5]; 0.003162 µM): -0.0117
- increase in dead-cell fraction ([5]; 0.01 µM): 0.001
- increase in dead-cell fraction ([5]; 0.03162 µM): 0.0013
- increase in dead-cell fraction ([5]; 0.1 µM): -0.0048
- increase in dead-cell fraction ([5]; 0.3162 µM): -0.0048
- increase in dead-cell fraction ([5]; 1 µM): 0.009
- increase in dead-cell fraction ([5]; 3.162 µM): 0.0049
- increase in dead-cell fraction ([5]; 10 µM): 0.0309
- increase in dead-cell fraction ([6]; 0.001 µM): -0.0027
- increase in dead-cell fraction ([6]; 0.003162 µM): -0.0038
- increase in dead-cell fraction ([6]; 0.01 µM): -0.0001
- increase in dead-cell fraction ([6]; 0.03162 µM): -0.0005
- increase in dead-cell fraction ([6]; 0.1 µM): 0.0163
- increase in dead-cell fraction ([6]; 0.3162 µM): 0.0047
- increase in dead-cell fraction ([6]; 1 µM): 0.0042
- increase in dead-cell fraction ([6]; 3.162 µM): 0.0248
- increase in dead-cell fraction ([6]; 10 µM): 0.0149
- increase in dead-cell fraction ([7]; 0.0001 µM): -0.0095
- increase in dead-cell fraction ([7]; 0.0003162 µM): -0.003
- increase in dead-cell fraction ([7]; 0.001 µM): -0.0007
- increase in dead-cell fraction ([7]; 0.003162 µM): 0.0016
- increase in dead-cell fraction ([7]; 0.01 µM): 0.0002
- increase in dead-cell fraction ([7]; 0.03162 µM): -0.0106
- increase in dead-cell fraction ([7]; 0.1 µM): -0.0044
- increase in dead-cell fraction ([7]; 0.3162 µM): 0.0118
- increase in dead-cell fraction ([7]; 1 µM): 0.223
- increase in dead-cell fraction ([8]; 0.0001 µM): -0.004
- increase in dead-cell fraction ([8]; 0.0003162 µM): -0.0048
- increase in dead-cell fraction ([8]; 0.001 µM): -0.0107
- increase in dead-cell fraction ([8]; 0.003162 µM): -0.0093
- increase in dead-cell fraction ([8]; 0.01 µM): -0.0068
- increase in dead-cell fraction ([8]; 0.03162 µM): -0.0102
- increase in dead-cell fraction ([8]; 0.1 µM): -0.002
- increase in dead-cell fraction ([8]; 0.3162 µM): 0.0031
- increase in dead-cell fraction ([8]; 1 µM): 0.215
- GR50, 72 h [9]: 0.0156 µM
- GR50, 72 h [10]: 2.66 µM
- GR50, 72 h [11]: 0.00131 µM
- GR50, 72 h [12]: > 10 µM
- GR50, 72 h [13]: 0.025 µM
- GR50, 72 h [14]: 1.51 µM
- GR50, 72 h [15]: 1.45 µM
- GR50, 72 h [16]: > 10 µM
- GR50, 72 h [17]: 0.658 µM
- GR50, 72 h [18]: > 1 µM
- GR50, 72 h [19]: 1.48 µM
